The values below come from ChEMBL document CHEMBL5352421, “Identification of novel piperazine-tethered phthalazines as selective CDK1 inhibitors endowed with in vitro anticancer activity toward the pancreatic cancer” (Eur J Med Chem, 2022).

Test [1] addresses T1, Tyrosine-protein kinase receptor UFO (Homo sapiens, UniProt P30530).
T1 sequence (P30530 whole entry): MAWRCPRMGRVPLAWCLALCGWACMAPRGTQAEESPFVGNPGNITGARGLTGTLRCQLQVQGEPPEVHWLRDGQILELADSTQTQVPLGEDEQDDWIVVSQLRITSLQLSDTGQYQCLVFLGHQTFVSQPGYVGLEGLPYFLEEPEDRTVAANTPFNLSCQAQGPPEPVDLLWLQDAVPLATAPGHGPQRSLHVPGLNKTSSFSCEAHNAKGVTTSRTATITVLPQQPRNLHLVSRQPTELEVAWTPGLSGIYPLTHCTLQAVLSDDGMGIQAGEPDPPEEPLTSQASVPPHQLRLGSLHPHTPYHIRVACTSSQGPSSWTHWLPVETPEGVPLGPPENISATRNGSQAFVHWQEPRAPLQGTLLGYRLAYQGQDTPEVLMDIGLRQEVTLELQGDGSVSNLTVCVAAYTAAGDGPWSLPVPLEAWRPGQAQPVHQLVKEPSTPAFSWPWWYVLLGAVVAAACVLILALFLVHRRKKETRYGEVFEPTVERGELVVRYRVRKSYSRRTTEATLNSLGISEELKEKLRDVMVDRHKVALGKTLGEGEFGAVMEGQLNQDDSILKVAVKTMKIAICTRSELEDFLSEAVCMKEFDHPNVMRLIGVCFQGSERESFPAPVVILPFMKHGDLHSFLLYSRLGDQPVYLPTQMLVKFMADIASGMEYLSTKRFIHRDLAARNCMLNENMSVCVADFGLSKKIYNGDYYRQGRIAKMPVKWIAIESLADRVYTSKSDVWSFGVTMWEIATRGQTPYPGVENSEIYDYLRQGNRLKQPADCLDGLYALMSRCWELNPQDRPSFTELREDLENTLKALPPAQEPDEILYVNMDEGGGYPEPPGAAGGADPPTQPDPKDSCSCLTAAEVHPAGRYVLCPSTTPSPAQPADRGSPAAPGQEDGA
In words: Inhibition of AXL (unknown origin) by FRET assay.

Test [2] concerns the target Insulin-like growth factor 1 receptor (Homo sapiens, UniProt P08069). The experiment in a line: Inhibition of IGF1R (unknown origin) by FRET assay.
Test [3] concerns the target Cyclin-dependent kinase 5 (Homo sapiens, UniProt Q00535). The experiment in a line: Inhibition of CDK5 (unknown origin) by FRET assay.
Test [4] in a line: Antiproliferative activity against human MDA-PATC53 cells assessed as growth inhibition incubated at 10 uM for 24 hrs by MTT assay relative to control. In kind it is functional. As to conditions: read-out: GI. In general terms: Tetrazolium assays rely on reduction of a dye to a coloured formazan, in cell work by metabolically active cells.
Another test deals with KG-1. The experiment in a line: Antiproliferative activity against human KG-1 cells assessed as growth inhibition incubated at 10 uM for 24 hrs by MTT assay relative to control. The format is functional. The conditions noted are these: read-out: GI.
A short description of test [5]: Selectivity index, ratio of IC50 for CDK2 (unknown origin) to CDK1 (unknown origin).
The test system of the next test is MOLT-4. In words: Antiproliferative activity against human MOLT-4 cells assessed as growth inhibition incubated at 10 uM for 24 hrs by MTT assay relative to control. The format is functional. The conditions noted are these: read-out: GI.
Test [6] deals with Protein-tyrosine kinase 2-beta (Homo sapiens, UniProt Q14289). The experiment in a line: Inhibition of PTK2B (unknown origin) by FRET assay.
Another test has as its system HT-29. The experiment in a line: Antiproliferative activity against human HT-29 cells assessed as growth inhibition incubated at 10 uM for 24 hrs by MTT assay relative to control. In kind it is functional. As to conditions: read-out: GI.
For the next test, the system named is BT-549. In words: Antiproliferative activity against human BT-549 cells assessed as growth inhibition incubated at 10 uM for 24 hrs by MTT assay relative to control. In kind it is functional. The conditions noted are these: read-out: GI.
A short description of test [7]: Selectivity index, ratio of IC50 for CDK5 (unknown origin) to CDK1 (unknown origin).
Test [8] can be described thus: Antiproliferative activity against human MDA-PATC53 cells assessed as growth inhibition incubated for 24 hrs by MTT assay. In kind it is functional, cell-based. As to conditions: MDA-PATC53, 24 h.
The next test has as its system A-375. In words: Antiproliferative activity against human A-375 cells assessed as growth inhibition incubated at 10 uM for 24 hrs by MTT assay relative to control. In kind it is functional. As to conditions: read-out: GI.
The next test has as its system T84. The experiment in a line: Antiproliferative activity against human T84 cells assessed as growth inhibition incubated at 10 uM for 24 hrs by MTT assay relative to control. The format is functional. The conditions noted are these: read-out: GI.
A further test concerns MCF7. The experiment in a line: Antiproliferative activity against human MCF7 cells assessed as growth inhibition incubated at 10 uM for 24 hrs by MTT assay relative to control. In kind it is functional. The conditions noted are these: read-out: GI.
The target of test [9] is Cyclin-dependent kinase 2 (Homo sapiens, UniProt P24941). The experiment in a line: Inhibition of CDK2 (unknown origin) by FRET assay.
Test [10] has as its target Fibroblast growth factor receptor (Homo sapiens, UniProt P22607+P11362+P22455+P21802). In words: Inhibition of FGFR (unknown origin) by FRET assay. In kind it is protein assay.
Test [11] in a line: Antiproliferative activity against human PL45 cells assessed as growth inhibition incubated for 24 hrs by MTT assay. The format is functional, cell-based. The conditions noted are these: PL45, 24 h.
The target of test [12] is Serine/threonine-protein kinase B-raf (Homo sapiens, UniProt P15056). In words: Inhibition of BRAF (unknown origin) by FRET assay.
Test [13] deals with Cyclin-dependent kinase 1 (Homo sapiens, UniProt P06493). In words: Inhibition of CDK1 (unknown origin) by FRET assay.
Test [14] deals with Tyrosine-protein kinase JAK1 (Homo sapiens, UniProt P23458). The experiment in a line: Inhibition of JAK1 (unknown origin) by FRET assay.
The test system of another test is G-361. In words: Antiproliferative activity against human G-361 cells assessed as growth inhibition incubated at 10 uM for 24 hrs by MTT assay relative to control. In kind it is functional. The conditions noted are these: read-out: GI.
Test [15] in a line: Antiproliferative activity against human PL45 cells assessed as growth inhibition incubated at 10 uM for 24 hrs by MTT assay relative to control. The format is functional. The conditions noted are these: read-out: GI.
The next test concerns SK-MEL-1. In words: Antiproliferative activity against human SK-MEL-1 cells assessed as growth inhibition incubated at 10 uM for 24 hrs by MTT assay relative to control. In kind it is functional. The conditions noted are these: read-out: GI.

Sequence of Tyrosine-protein kinase JAK1 (P23458 whole entry): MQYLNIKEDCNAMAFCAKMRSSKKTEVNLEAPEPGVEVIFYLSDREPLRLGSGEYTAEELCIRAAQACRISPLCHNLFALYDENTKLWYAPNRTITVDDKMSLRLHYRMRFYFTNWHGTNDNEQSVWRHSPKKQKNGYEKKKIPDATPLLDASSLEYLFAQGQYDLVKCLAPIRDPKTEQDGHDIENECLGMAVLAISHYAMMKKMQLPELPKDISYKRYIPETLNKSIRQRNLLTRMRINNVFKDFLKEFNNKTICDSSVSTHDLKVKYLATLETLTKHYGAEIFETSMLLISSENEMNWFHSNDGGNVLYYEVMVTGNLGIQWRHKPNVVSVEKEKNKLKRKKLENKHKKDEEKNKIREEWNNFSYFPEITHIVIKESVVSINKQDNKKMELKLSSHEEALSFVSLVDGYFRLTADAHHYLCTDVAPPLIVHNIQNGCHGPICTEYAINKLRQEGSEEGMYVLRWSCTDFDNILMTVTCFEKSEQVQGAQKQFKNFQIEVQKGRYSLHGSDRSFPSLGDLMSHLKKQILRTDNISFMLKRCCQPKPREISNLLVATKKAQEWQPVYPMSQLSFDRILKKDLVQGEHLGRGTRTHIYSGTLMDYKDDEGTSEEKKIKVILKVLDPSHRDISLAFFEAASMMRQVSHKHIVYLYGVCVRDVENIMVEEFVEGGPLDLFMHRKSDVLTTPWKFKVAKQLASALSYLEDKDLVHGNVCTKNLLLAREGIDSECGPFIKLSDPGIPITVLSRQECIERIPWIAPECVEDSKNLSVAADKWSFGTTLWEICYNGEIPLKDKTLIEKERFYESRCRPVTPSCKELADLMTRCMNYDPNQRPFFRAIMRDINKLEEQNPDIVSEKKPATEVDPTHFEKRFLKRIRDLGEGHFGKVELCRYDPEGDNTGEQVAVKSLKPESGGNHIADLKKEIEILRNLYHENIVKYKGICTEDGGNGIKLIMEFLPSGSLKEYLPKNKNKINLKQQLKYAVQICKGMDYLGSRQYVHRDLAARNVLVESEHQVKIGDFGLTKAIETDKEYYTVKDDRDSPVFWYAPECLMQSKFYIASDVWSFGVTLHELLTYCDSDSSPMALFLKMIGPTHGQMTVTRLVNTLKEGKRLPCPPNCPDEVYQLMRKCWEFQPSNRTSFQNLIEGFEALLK
Sequence of Cyclin-dependent kinase 5 (Q00535 whole entry): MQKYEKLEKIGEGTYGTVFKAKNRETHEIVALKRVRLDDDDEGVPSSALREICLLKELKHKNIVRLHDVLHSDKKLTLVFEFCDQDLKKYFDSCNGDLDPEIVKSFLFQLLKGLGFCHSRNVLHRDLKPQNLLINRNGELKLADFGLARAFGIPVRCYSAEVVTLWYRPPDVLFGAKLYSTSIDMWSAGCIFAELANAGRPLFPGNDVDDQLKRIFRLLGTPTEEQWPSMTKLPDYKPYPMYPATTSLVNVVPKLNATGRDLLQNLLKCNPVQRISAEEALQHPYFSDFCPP
Sequence of Insulin-like growth factor 1 receptor (P08069 31-736 limits assumed): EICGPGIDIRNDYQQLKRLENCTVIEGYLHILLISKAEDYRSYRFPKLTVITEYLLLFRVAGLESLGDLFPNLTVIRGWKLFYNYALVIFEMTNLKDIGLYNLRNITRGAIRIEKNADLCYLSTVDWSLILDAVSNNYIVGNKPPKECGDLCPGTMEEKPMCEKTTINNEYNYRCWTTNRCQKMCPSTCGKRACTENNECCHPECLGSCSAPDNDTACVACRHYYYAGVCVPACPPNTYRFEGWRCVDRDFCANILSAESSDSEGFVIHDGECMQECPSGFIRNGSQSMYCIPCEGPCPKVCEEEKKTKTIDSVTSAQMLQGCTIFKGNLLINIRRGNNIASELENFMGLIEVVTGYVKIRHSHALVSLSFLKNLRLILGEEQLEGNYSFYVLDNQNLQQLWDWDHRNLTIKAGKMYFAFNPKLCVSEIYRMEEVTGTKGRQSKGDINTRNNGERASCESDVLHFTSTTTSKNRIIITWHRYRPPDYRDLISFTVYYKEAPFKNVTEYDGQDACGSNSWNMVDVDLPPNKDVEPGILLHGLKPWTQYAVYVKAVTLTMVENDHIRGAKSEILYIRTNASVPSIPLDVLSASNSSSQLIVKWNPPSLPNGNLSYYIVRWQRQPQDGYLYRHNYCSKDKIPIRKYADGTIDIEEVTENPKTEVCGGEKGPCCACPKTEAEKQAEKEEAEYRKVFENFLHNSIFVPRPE
Sequence of Insulin-like growth factor 1 receptor (P08069 741-1367 limits assumed): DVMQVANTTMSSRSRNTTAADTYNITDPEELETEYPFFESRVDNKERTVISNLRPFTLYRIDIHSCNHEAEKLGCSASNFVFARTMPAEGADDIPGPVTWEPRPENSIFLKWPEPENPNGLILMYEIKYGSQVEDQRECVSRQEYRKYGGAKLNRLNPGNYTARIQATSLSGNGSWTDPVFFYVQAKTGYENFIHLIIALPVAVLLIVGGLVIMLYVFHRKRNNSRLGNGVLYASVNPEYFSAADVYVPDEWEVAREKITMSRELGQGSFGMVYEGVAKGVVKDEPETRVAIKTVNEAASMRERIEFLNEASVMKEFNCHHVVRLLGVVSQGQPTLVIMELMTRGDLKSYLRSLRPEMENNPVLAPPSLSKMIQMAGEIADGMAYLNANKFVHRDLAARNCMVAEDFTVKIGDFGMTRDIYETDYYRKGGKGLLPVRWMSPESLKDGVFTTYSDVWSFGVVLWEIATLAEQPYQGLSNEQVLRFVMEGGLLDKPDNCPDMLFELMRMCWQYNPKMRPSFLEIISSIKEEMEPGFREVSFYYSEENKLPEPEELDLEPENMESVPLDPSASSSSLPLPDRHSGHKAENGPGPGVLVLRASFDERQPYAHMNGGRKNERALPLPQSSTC
Sequence of Protein-tyrosine kinase 2-beta (Q14289 whole entry): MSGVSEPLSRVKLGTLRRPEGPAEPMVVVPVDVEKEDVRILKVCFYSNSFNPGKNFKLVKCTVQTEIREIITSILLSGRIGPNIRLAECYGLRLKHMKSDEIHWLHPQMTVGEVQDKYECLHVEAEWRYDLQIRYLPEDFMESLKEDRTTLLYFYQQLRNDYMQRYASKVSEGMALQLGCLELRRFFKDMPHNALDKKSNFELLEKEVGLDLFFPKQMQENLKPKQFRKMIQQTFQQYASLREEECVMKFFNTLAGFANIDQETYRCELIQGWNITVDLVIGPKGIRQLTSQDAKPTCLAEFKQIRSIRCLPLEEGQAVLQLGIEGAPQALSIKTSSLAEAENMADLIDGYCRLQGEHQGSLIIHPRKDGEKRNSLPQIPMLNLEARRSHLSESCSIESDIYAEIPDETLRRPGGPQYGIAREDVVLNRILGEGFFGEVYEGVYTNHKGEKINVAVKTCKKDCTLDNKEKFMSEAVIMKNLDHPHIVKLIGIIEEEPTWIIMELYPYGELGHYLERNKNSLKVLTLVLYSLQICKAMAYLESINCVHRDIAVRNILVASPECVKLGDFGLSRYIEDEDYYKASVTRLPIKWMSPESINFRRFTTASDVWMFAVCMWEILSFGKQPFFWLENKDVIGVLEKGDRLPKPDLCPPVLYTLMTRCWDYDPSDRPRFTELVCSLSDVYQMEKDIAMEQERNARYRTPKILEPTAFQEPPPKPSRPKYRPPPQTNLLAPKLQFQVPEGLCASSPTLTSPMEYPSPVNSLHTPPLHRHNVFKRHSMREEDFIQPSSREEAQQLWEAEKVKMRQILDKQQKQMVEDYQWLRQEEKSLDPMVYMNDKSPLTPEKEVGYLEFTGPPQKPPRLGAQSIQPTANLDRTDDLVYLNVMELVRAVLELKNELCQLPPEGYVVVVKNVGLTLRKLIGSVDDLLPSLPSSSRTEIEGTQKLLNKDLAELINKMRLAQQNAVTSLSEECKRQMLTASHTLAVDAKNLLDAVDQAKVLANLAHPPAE
Sequence of Serine/threonine-protein kinase B-raf (P15056 whole entry): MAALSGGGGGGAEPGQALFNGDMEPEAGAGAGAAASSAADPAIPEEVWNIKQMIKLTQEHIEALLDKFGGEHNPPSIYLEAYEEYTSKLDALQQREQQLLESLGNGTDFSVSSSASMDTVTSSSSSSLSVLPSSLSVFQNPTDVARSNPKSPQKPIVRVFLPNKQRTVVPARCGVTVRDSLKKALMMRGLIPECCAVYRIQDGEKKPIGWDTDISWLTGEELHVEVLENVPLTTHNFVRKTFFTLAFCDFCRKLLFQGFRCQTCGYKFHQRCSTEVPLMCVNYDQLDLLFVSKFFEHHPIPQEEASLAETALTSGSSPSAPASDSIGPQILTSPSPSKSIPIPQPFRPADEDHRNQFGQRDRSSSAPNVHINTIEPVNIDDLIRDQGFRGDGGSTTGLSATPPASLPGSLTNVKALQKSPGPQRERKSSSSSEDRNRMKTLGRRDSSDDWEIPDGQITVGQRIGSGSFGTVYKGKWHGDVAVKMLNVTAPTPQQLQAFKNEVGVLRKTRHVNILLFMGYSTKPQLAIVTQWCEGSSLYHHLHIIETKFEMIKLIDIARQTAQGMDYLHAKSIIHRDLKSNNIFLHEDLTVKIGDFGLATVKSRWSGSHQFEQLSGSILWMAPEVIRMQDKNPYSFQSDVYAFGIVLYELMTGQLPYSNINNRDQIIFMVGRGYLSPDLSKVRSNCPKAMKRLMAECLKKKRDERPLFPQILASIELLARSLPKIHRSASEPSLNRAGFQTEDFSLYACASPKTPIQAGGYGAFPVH
Sequence of Cyclin-dependent kinase 1 (P06493 whole entry): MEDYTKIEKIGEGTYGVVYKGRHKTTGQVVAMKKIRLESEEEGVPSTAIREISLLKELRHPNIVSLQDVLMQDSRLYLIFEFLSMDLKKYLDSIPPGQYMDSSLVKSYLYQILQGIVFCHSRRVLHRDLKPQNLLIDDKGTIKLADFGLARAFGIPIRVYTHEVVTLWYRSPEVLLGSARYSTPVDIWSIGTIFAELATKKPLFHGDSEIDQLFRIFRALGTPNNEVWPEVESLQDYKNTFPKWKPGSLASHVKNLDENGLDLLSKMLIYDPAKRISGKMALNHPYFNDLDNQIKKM

As a reminder, the IC50 is the concentration at which inhibition is half-maximal. With `COc1ccc(Cc2nnc(N3CCN(C(=O)c4ccccc4)CC3)c3ccccc23)cc1`, the half-inhibitory concentration (IC50) in test [1] was found to be 5490 nM; in test [2], 1530 nM; in test [3], 391 nM; in [6], 4330 nM; in test [8] it was 4070 nM; in test [9] it was 455 nM. Moreover, the IC50 in test [10] came out at 6332 nM; in [11], 12900 nM; in test [12], 3260 nM; in test [13] it was 91 nM; in [14], 5600 nM. Moreover, the inhibition of growth at 10 µM in test [4] was 70.4%; with KG-1 it was 12.1%; with MOLT-4, 9.47%; in the test with HT-29 it was 5.09%; in the test with BT-549, 19%; in the test on A-375, 10.3%. Further, the inhibition of growth at 10 µM with T84 was found to be 18.3%; in the test with MCF7 it was 11.4%; in the test on G-361, 8.66%; in test [15] it was 44.6%; with SK-MEL-1, 2.02%. Besides, the Ratio IC50 in test [5] was determined as 5; in test [7], 4.3.
With `COc1ccc(Cc2nnc(N3CCN(C(=S)Nc4ccc(OC)cc4)CC3)c3ccccc23)cc1`, the IC50 came out at 8410 nM in test [1]; 5650 nM in test [2]; 452 nM in test [3]; 3660 nM in test [6]; 6650 nM in test [8]; 396 nM in test [9]. The half-maximal inhibitory concentration (IC50) stood at 3566 nM in [10]; 2100 nM in test [11]; 3050 nM in [12]; 84.4 nM in test [13]; 1540 nM in test [14]. In addition, the inhibition of growth at 10 µM in test [4] came out at 66.4%; in the test with KG-1, 23.9%; in the test with MOLT-4, 31.4%; in the test with HT-29, 51.7%; in the test on BT-549, 23.7%; in the test with A-375 it was 47.9%. Moreover, the inhibition of growth at 10 µM was 19.3% in the test with T84; 73.1% with MCF7; 58.3% with G-361; 83.5% in [15]; 29.4% with SK-MEL-1. Also, the Ratio IC50 in [5] amounted to 4.7; in test [7] it was 5.36.
Turning to `COc1ccc(Cc2nnc(N3CCN(C(=S)Nc4ccccc4)CC3)c3ccccc23)cc1`, the 50% inhibitory concentration (IC50) in test [1] came to 1170 nM; in test [2], 2430 nM; in test [3], 996 nM; in test [6] it was 1450 nM; in [8] it was 2060 nM; in test [9] it was 524 nM. Further, the half-inhibitory concentration (IC50) in test [10] amounted to 7953 nM; in test [11], 13300 nM; in test [12], 4730 nM; in test [13], 85 nM; in test [14] it was 3550 nM. The inhibition of growth at 10 µM in test [4] worked out at 76.2%; in the test on KG-1, 13.9%; in the test on MOLT-4, 28.7%; in the test on HT-29 it was 16.9%; in the test on BT-549, 13.2%; with A-375, 17%. Moreover, the inhibition of growth at 10 µM turned out to be 7.38% in the test with T84; 14% with MCF7; 4.21% in the test on G-361; 42.3% in test [15]; 11.4% with SK-MEL-1. Moreover, the Ratio IC50 in [5] came to 6.16; in test [7] it was 11.7.
With `COc1cccc(NC(=S)N2CCN(c3nnc(Cc4ccccc4)c4ccccc34)CC2)c1`, the IC50 in test [1] amounted to 7950 nM; in test [2], 1130 nM; in [3], 705 nM; in test [6] it was 4490 nM; in test [8] it was 3880 nM; in [9] it was 426 nM. Besides, the 50% inhibitory concentration (IC50) in test [10] is 3853 nM; in [11] it was 5760 nM; in [12] it was 3880 nM; in test [13], 88.4 nM; in test [14], 3540 nM. Also, the inhibition of growth at 10 µM in test [4] is 76.3%; with KG-1, 28.5%; with MOLT-4 it was 31.2%; in the test with HT-29, 60.2%; in the test with BT-549 it was 52.1%; with A-375 it was 60.1%. The inhibition of growth at 10 µM in the test on T84 turned out to be 49.7%; in the test with MCF7, 34.2%; with G-361, 31.2%; in test [15], 66%; in the test on SK-MEL-1, 49.3%. Further, the Ratio IC50 is 4.82 in test [5] and 7.98 in test [7].
`S=C(Nc1ccccc1)N1CCN(c2nnc(Cc3ccccc3)c3ccccc23)CC1`: the IC50 in test [1] turned out to be 1260 nM; in test [2], 2370 nM; in [3] it was 947 nM; in test [6], 5230 nM; in test [8] it was 1610 nM; in test [9], 240 nM. The half-inhibitory concentration (IC50) in test [10] came to 2507 nM; in test [11], 2540 nM; in test [12], 8750 nM; in test [13], 70 nM; in [14] it was 4970 nM. In addition, the inhibition of growth at 10 µM is 85.2% in test [4]; 61.9% in the test with KG-1; 43% with MOLT-4; 20.7% in the test on HT-29; 42.1% in the test with BT-549; 38.2% in the test with A-375. For the same molecule, the inhibition of growth at 10 µM was 56% in the test on T84; 64.6% with MCF7; 58.9% in the test with G-361; 78.4% in test [15]; 50.9% with SK-MEL-1. Also, the results for the Ratio IC50 in test [5] and in test [7] were 3.42 and 13.5, respectively.
For the molecule `COc1ccc(Cc2nnc(N3CCN(C(=S)Nc4ccc(Cl)cc4)CC3)c3ccccc23)cc1`, the half-maximal inhibitory concentration (IC50) turned out to be 2170 nM in test [1]; 7440 nM in test [2]; 716 nM in test [3]; 2370 nM in test [6]; 1620 nM in test [8]; 534 nM in test [9]. Further, the IC50 in test [10] amounted to 4354 nM; in test [11], 1890 nM; in test [12], 2470 nM; in test [13] it was 49.5 nM; in [14] it was 4150 nM. For the same molecule, the inhibition of growth at 10 µM in test [4] was determined as 85.8%; in the test with KG-1, 63.9%; with MOLT-4, 78.4%; in the test with HT-29 it was 80.1%; in the test with BT-549, 75.4%; in the test on A-375, 85.6%. The inhibition of growth at 10 µM with T84 is 81.4%; in the test on MCF7 it was 71.9%; with G-361, 72.3%; in test [15], 86.4%; in the test with SK-MEL-1, 64.7%. In addition, the Ratio IC50 in test [5] was 10.8; in [7], 14.5.
